Results: publication PMC9943626, “CS27109, A Selective Thyroid Hormone Receptor-β Agonist Alleviates Metabolic-Associated Fatty Liver Disease in Murine Models” (International Journal of Endocrinology, 2023)
Like-named read-outs stand apart in the source and are kept apart here.

Columns and labels:
HFD SD rat model = test: HFD SD rat model, biochemical, organ weight ratio, liver lipid and liver pathology; type: in vivo; conditions: HFD SD rat; for H/B (heart/body weight ratio) / L/B (liver/body weight ratio): mean ± SD; for H/B (heart/body weight ratio): model 0.24 ± 0.02, normal 0.28 ± 0.02; for L/B (liver/body weight ratio): model 5.1 ± 0.75, normal 2.8 ± 0.26
Experimental: SD rat study: 58 SD rats ♂ aged 5–6 weeks were purchased from Beijing Huafukang Biotechnology Co., Ltd. 9 animals were kept with a food control diet as normal control, and the other 49 animals were fed 40% fat, 1.25% cholesterol and 0.5% sodium cholate (HFD, D12109C, SYSE BIO, Changzhou, China) as a model group. […] Animals in the normal and model groups were given solvent by oral gavage. All drugs, including solvent, were administered consecutively for 4 weeks and once a day. After sacrifice, blood was collected and serum was isolated for the AST, ALT, TG, TC, LDL-c, and HDL-c test, and livers and hearts were weighed to calculate the liver weight ratio and the heart weight ratio, respectively. The right lobe of the liver of each rat was harvested for the TG and TC test (A110-1-1 and A111-1-1, Nanjing Jiancheng Institute of Bioengineering, Nanjing, China) according to the manufacturer's instructions. The left lobe of the liver was collected for hematoxylin-eosin staining (H and E staining) to quantify liver steatosis, inflammation, and ballooning.
(§1) The liver samples were fixed in 10% formalin and embedded in paraffin using standard methods. The 4 μm paraffin sections were then assessed for liver histology by H and E staining and liver fibrosis by sirius red staining. The stained sections were panoramic scanned with a NanoZoomer Digital Pathology scanner (S210, Hamamatsu, Japan), and then observed with different visual fields at different magnifications, and scored for different liver lobes in the sections. The total NAS score represents the sum of the scores for steatosis (0–3), lobular inflammation (0–3), and ballooning (0–2), and ranges from 0–8 [30]. VIS7.0 software was used to analyze the area of liver fibrosis in the panoramic scanning SR staining sections, and the percentage of liver fibrosis area in the whole section area was calculated.

WD + CCL4 mouse model = test: WD + CCL4 mouse model, biochemical, liver weight ratio and liver pathology; type: in vivo, C57/B6 mouse; conditions: for LDL-c / TG / HDL-c / TC / CK activity / AST / ALT: WD + CCL4 mouse serum; for LDL-c / TG / HDL-c / TC / CK activity / AST / ALT / L/B (liver/body weight ratio): mean ± SD; for LDL-c: model 1.1 ± 0.35, normal 0.43 ± 0.04; for TG: model 1.2 ± 0.34, normal 0.91 ± 0.14; for HDL-c: model 1.5 ± 0.25, normal 2.0 ± 0.08; for TC: model 4.1 ± 0.97, normal 3.0 ± 0.10; for CK activity: model 345 ± 268, normal 334 ± 193; for AST: model 10245 ± 4955, normal 116 ± 71; for ALT: model 14003 ± 4205, normal 54 ± 15; for L/B (liver/body weight ratio): model 3.5 ± 0.27, normal 3.5 ± 0.27
Experimental: C57/B6 mouse study: 61 C57/B6 mice ♂ aged 6–7 weeks were purchased from Beijing Vital River Laboratory Animal Technology Co., Ltd. Six animals were kept with a chow diet as normal control, and the other 55 animals were fed 60% fat diet (Western diet, D12492, Research diet) as the model group. […] Animals in the normal and model groups were given solvent by oral gavage. All drugs, including solvent, were administered consecutively for 4 weeks and once a day. After sacrifice, blood was collected and serum was isolated for the AST, ALT, TG, TC, LDL-c, HDL-c, and CK tests, and the livers were weighed to calculate the liver weight ratio. The left lobe of the liver of each mouse was collected for hematoxylin-eosin staining (H and E staining) and sirius red staining.
as §1

[1] = Tissue distribution in SD rat; type: in vivo; conditions: for concentration at 2 h / concentration at 8 h: male, 10 mg/kg oral gavage once
Excerpt: [Worded in the source for another organism; this organism is reported under the same test.] Half of mice for each group (n = 3) were sacrificed 2H and 8H after drug administration, respectively. Blood, heart, and liver were collected at each time point. Blood was processed and detected as mentioned previously. The heart and liver were homogenized and added extractant. The protein of tissue samples was precipitated by vortex oscillation, and the supernatant was collected and determined by LC-MS/MS procedures.

[2] = 5 mg/kg (L) oral once a day 4 weeks
[3] = 15 mg/kg (CS27109-M, MGL-3196) oral once a day 4 weeks
[4] = 45 mg/kg (H) oral once a day 4 weeks
[5] = 3 mg/kg (L) oral once a day 4 weeks
[6] = 10 mg/kg (CS27109-M, MGL-3196) oral once a day 4 weeks
[7] = 30 mg/kg (H) oral once a day 4 weeks
[8] = WD + CCL4 mouse, 4 weeks, MGL3196 10 mg/kg, CS27109 high-dose (30 mg/kg), vs model
[9] = heart, read-out: Heart concentration
[10] = liver, read-out: Liver concentration
[11] = serum, read-out: Serum concentration

N#Cc1nn(-c2cc(Br)c(Oc3n[nH]c(=O)c4ccccc34)c(Br)c2)c(=O)[nH]c1=O [CS27109]
liver steatosis score (H and E) (HFD SD rat model; 4 weeks, CS27109 5-45 mg/kg dose-dependent, MGL3196 15 mg/kg, vs model): lessened steatosis
liver inflammation score (H and E) (HFD SD rat model; 4 weeks, CS27109 5-45 mg/kg, MGL3196 15 mg/kg, vs model): dose-dependently reduced liver inflammation, but without a significant effect
NAS score (HFD SD rat model; 4 weeks, high dose CS27109 (45 mg/kg) only, vs model): decreased the NAS score
H/B (heart/body weight ratio) (HFD SD rat model; [2]): 0.27 ± 0.03%
L/B (liver/body weight ratio) (HFD SD rat model; [2]): 4.0 ± 0.52 %
H/B (heart/body weight ratio) (HFD SD rat model; [3]): 0.28 ± 0.02 %
L/B (liver/body weight ratio) (HFD SD rat model; [3]): 4.1 ± 0.56 %
H/B (heart/body weight ratio) (HFD SD rat model; [4]): 0.27 ± 0.02%
L/B (liver/body weight ratio) (HFD SD rat model; [4]): 3.9 ± 0.54 %
LDL-c (WD + CCL4 mouse model; [5]): 0.40 ± 0.10 mmol/L
TG (WD + CCL4 mouse model; [5]): 1.2 ± 0.34 mmol/L
HDL-c (WD + CCL4 mouse model; [5]): 0.85 ± 0.24 mmol/L
TC (WD + CCL4 mouse model; [5]): 2.3 ± 0.40 mmol/L
CK activity (WD + CCL4 mouse model; [5]): 331 ± 386 U/L
AST (WD + CCL4 mouse model; [5]): 13447 ± 6633 U/L
ALT (WD + CCL4 mouse model; [5]): 19162 ± 4012 U/L
LDL-c (WD + CCL4 mouse model; [6]): 0.37 ± 0.07 mmol/L
TG (WD + CCL4 mouse model; [6]): 1.2 ± 0.19 mmol/L
HDL-c (WD + CCL4 mouse model; [6]): 0.94 ± 0.25 mmol/L
TC (WD + CCL4 mouse model; [6]): 2.2 ± 0.36 mmol/L
CK activity (WD + CCL4 mouse model; [6]): 201 ± 95 U/L
AST (WD + CCL4 mouse model; [6]): 4804 ± 1121 U/L
ALT (WD + CCL4 mouse model; [6]): 10478 ± 2131 U/L
LDL-c (WD + CCL4 mouse model; [7]): 0.39 ± 0.11 mmol/L
TG (WD + CCL4 mouse model; [7]): 1.2 ± 0.18 mmol/L
HDL-c (WD + CCL4 mouse model; [7]): 1.2 ± 0.31 mmol/L
TC (WD + CCL4 mouse model; [7]): 2.4 ± 0.48 mmol/L
CK activity (WD + CCL4 mouse model; [7]): 280 ± 147 U/L
AST (WD + CCL4 mouse model; [7]): 3660 ± 1208 U/L
ALT (WD + CCL4 mouse model; [7]): 7832 ± 2422 U/L
liver inflammation score (H and E) (WD + CCL4 mouse model; [8]): notable reduction
liver steatosis score (H and E) (WD + CCL4 mouse model; [8]): notable reduction
liver ballooning score (H and E) (WD + CCL4 mouse model; WD + CCL4 mouse, 4 weeks, only low-dose CS27109 (3 mg/kg), vs model): significantly reduced liver ballooning
area of liver fibrosis (sirius red) (WD + CCL4 mouse model; WD + CCL4 mouse, 4 weeks, three doses of CS27109 (3, 10, 30 mg/kg), MGL3196 10 mg/kg, vs model): prominently reduced the area of the fibrosis
L/B (liver/body weight ratio) (WD + CCL4 mouse model; WD + CCL4 mouse, 3 mg/kg (L) oral once a day 4 weeks): 3.3 ± 0.40%
L/B (liver/body weight ratio) (WD + CCL4 mouse model; WD + CCL4 mouse, 10 mg/kg (CS27109-M, MGL-3196) oral once a day 4 weeks): 3.2 ± 0.68%
L/B (liver/body weight ratio) (WD + CCL4 mouse model; WD + CCL4 mouse, 30 mg/kg (H) oral once a day 4 weeks): 3.2 ± 0.79%
average of concentration liver/heart ([1]; 10 mg/kg oral, average of 2H and 8H): 26.69
concentration at 2 h [1, 9]: 95.7 ng/g
concentration at 8 h [1, 9]: 309 ng/g
concentration at 2 h [1, 10]: 1670 ng/g
concentration at 8 h [1, 10]: 11100 ng/g
concentration at 2 h [1, 11]: 670 ng/mL
concentration at 8 h [1, 11]: 3620 ng/mL
